Measured values taken from patent publication US20220380764A1, “MOLECULAR GUIDE SYSTEM PEPTIDES AND USES THEREOF” (SRI International, priority 2019, published 2022).
Square brackets hold non-standard residues; d marks the D form. Primed or numbered codes have the meaning given here. Peptide text beside a SMILES is read from it. PEG12 = NCCOCCOCCOCCOCCOCCOCCOCCOCCOCCOCCOCCOCCC(=O)O; PEG11′ = not defined here

Assays:
[1] = system: H1993 Cells; test: SRI_MGS2_V4 uptake profile (effective dose, stoichiometry, rate of uptake); format: cell-based
From the text: (§1) 1. Example 1: Effective Dose, Stoichiometry, and Rate of Uptake for MGS 2

[2] = system: H2009 Cells; test: as above; format: cell-based
From the text: as §1

[3] = system: H358 Cells; test: as above; format: cell-based
From the text: as §1

[4] = system: H1299 Cells; test: as above; format: cell-based
From the text: as §1

[5] = system: Non-Small Cell Lung Cancer; test: Cellular location of MGS, carcinomas and solid tumors; format: cell-based; details: for MSG Code and Cellular Location: Table 2, Intracellular = uptake confirmed, exact compartment not determined; for Cellular Location: Table 3, Carcinomas and Solid Tumors
From the text: (§2) The FOX-Three platform is based on established phage display libraries containing 10^9-10^12 candidate peptide-based MGS members that can be rapidly screened against target cells and subcellular systems to identify specifically targeted MGSs (FIG. 2). Peptides are a well-understood class of biomolecule that are readily synthesized by biological processes and through man-made chemical processes. […] It can be applied to any cell type, regardless of knowledge about the molecular features of that cell, producing a lead MGS in 2-4 weeks. Selected peptide-based MGSs are then readily engineered for optimal performance.
(§3) The FOX-Three Platform has already been validated for targeting of cells and subcellular components. A number of validated MGSs are in various stages of development (Table 1) for a variety of cell targeting systems. Methods of conjugating a variety of payloads to the peptide MGSs have been established without disrupting their targeting ability. […] The FOX-Three screening process was recently refined to include subcellular location targeting as a selection criteria. MGSs have been isolated that accumulate in lysosomes, autophagosomes, and Golgi inside cancer cells, as well as target the plasma membrane.

[6] = system: Carcinomas and Solid Tumors; test: In vivo targeting of MGS; details: Table 3; homing to target cell in an animal model
From the text: as §3

[7] = system: H1993 Cells; test: siRNA internalization with and without MGS (FIG. 5); format: cell-based; details: SA-647, 5′-Biotinylated siRNA+SA-647, 3′-Biotinylated siRNA+SA-647, alone or conjugated to the MGS
Experimental: With this objective, novel MGSs were applied to facilitate cell-specific delivery of siRNA. As previously mentioned, these MGSs have the unique ability to bind to specific epithelial-derived cancer cell types, and upon binding, triggers rapid internalization and trafficking to specific subcellular locations. The chemically optimized MGSs have 1-2 nM affinities for their cellular targets, serum stability greater than 48 hours, and approximately 50-1000-fold specificity for targeted cancer cells over normal control cells. […] Internalization experiments were first performed using H1993 cells. For this set of experiments, the group of bars at the far right are 5′-Biotinylated siRNA+SA-647 and 3′-Biotinylated siRNA+SA-647 without MGS. The middle and far left bar groups show SA-647, 5′-Biotinylated siRNA+SA-647, and 3′-Biotinylated siRNA+SA-647 conjugated to a first MGS (SRI_MGS1_V4, right) and a second MGS (SRI_MGS2_V4, middle).

[8] = system: Dendritic Cells; test: Cellular location of MGS, dendritic cells; format: cell-based; details: Table 2
From the text: as §2

[9] = system: Lymphoma Cells; test: Cellular location of MGS, lymphoma and leukemia; format: cell-based; details: Table 2
From the text: as §2

[10] = system: Cardiomyocytes; test: Cellular location of MGS, cardiomyocytes; format: cell-based; details: Table 2
From the text: as §2

CC(=O)N[C@@H](Cc1ccc(O)cc1)C(=O)N[C@@H](C)C(=O)N[C@@H](C)C(=O)N[C@@H](Cc1c[nH]c2ccccc12)C(=O)N1CCC[C@H]1C(=O)N[C@@H](C)C(=O)N[C@@H](CO)C(=O)NCC(=O)N[C@@H](C)C(=O)N[C@@H](Cc1c[nH]c2ccccc12)C(=O)N[C@H](C(=O)NCCOCCOCCOCCOCCOCCOCCOCCOCCOCCOCCOCCOCCC(=O)N[C@@H](CS)C(N)=O)[C@@H](C)O [SRI_MGS2_V4, CH3CO-YAAWPASGAWT-PEG11-C-NH2] (Ac-YAAWPASGAWT[PEG12]C-NH2)
Molecules Internalized, 6 H ([1]; H1993 cells, 6 H with constant incubation of 20 nM MGS): 134300 ± 6300 molecules | Saturation (molecules) ([1]; H1993 cells, average number of MGS molecules internalized per cell at saturation concentration at 1 H): 141600 ± 28200 molecules | t1/2 ([1]; H1993 cells, rate of uptake): 12 min | Specificity ([1]; ratio of MGS uptake on H1993 vs. normal human bronchial epithelial cell line (HBEC)): 2300 | Molecules Internalized, 6 H ([2]; H2009 cells, 6 H with constant incubation of 20 nM MGS): 49500 ± 2230 molecules | Saturation (molecules) ([2]; H2009 cells, average number of MGS molecules internalized per cell at saturation concentration at 1 H): 68300 ± 3030 molecules | t1/2 ([2]; H2009 cells, rate of uptake): 13 min | Specificity ([2]; ratio of MGS uptake on H2009 vs. normal human bronchial epithelial cell line (HBEC)): 560 | Molecules Internalized, 6 H ([3]; H358 cells, 6 H with constant incubation of 20 nM MGS): 97100 ± 4830 molecules | Saturation (molecules) ([3]; H358 cells, average number of MGS molecules internalized per cell at saturation concentration at 1 H): 99900 ± 9640 molecules | t1/2 ([3]; H358 cells, rate of uptake): 11 min | Specificity ([3]; ratio of MGS uptake on H358 vs. normal human bronchial epithelial cell line (HBEC)): 1100 | Molecules Internalized, 6 H ([4]; H1299 cells, 6 H with constant incubation of 20 nM MGS): 125500 ± 5430 molecules | Saturation (molecules) ([4]; H1299 cells, average number of MGS molecules internalized per cell at saturation concentration at 1 H): 112800 ± 15500 molecules | t1/2 ([4]; H1299 cells, rate of uptake): 37 min | Specificity ([4]; ratio of MGS uptake on H1299 vs. normal human bronchial epithelial cell line (HBEC)): 1400

AHTIDDEWASYHMQQWNSPP (MGS peptide) [MGS_H2009.4]
MSG Code and Cellular Location [5]: MGS_H2009.4_Golgi/ER

ATEPRKQYATPRVFWTDAPG (MGS peptide) [MGS_HCC15.1]
MSG Code and Cellular Location [5]: MGS_HCC15.1_Intracellular | Cellular Location [5]: Lysosome | In Vivo Targeting [6]: Yes

CH3CO-RGDLATLRQL-PEG11-YC-NH2 (Ac-RGDLATLRQL[PEG11′]YC-NH2) [SRI_MGS1_V4]
molecules internalized per cell [7]: approximately 25000 molecules internalized per cell

EAMNSAEQSAAVVQWEKRRI (MGS peptide) [MGS_H460.1]
MSG Code and Cellular Location [5]: MGS_H460.1_PlasmaMembrane

EHPWFNMWSWATQVQE (MGS peptide) [MGS_H2009.2]
MSG Code and Cellular Location [5]: MGS_H2009.2_Lysosome | Cellular Location [5]: Lysosome

FAAKRAEWWDPGQLWDAVWN (MGS peptide) [MGS_H1993.2]
MSG Code and Cellular Location [5]: MGS_H1993.2_Intracellular

FEEFYSRQSNTIPYPQQYKG (MGS peptide) [MGS_H2009.5]
MSG Code and Cellular Location [5]: MGS_H2009.5_ER/Lysosome

FHAVPQSFYTAP (MGS peptide) [MGS_HCC15.2]
MSG Code and Cellular Location [5]: MGS_HCC15.2_Lysosomal | Cellular Location [5]: Lysosome | In Vivo Targeting [6]: Yes

GPEDTSRAPENQQKTFHRRW (MGS peptide) [MGS_XS52.1]
MSG Code and Cellular Location [8]: MGS_XS52.1_Intacellular

KSREHVNNSACPSKRITAAL (MGS peptide) [MGS_A20.2]
MSG Code and Cellular Location [9]: MGS_A20.2_ Plasma Membrane

LQWRRDDNVHNFGVWARYRL (MGS peptide) [MGS_1299.3]
MSG Code and Cellular Location [5]: MGS_H1299.3_Autophagosomes | Cellular Location [5]: Autophagasome | In Vivo Targeting [6]: Yes

MDGATWWTQLDPLLVWEGET (MGS peptide) [MGS_H1993.5]
MSG Code and Cellular Location [5]: MGS_H1993.5_Intracellular

MTVCNASQRQAHAQATAVSL (MGS peptide) [MGS_A549.1]
MSG Code and Cellular Location [5]: MGS_A549.1_Intracellular

QEALEEWFWKMMPWSGPSGQ (MGS peptide) [MGS_H1993.3]
MSG Code and Cellular Location [5]: MGS_H1993.3_Intracellular

RGDLATLRQLAQEDGVVGVR (MGS peptide) [MGS_H2009.1]
MSG Code and Cellular Location [5]: MGS_H2009.1_Golgi | Cellular Location [5]: Golgi | In Vivo Targeting [6]: Yes

SADWFQGPAEWLLEGWMGPL (MGS peptide) [MGS_H1993.6]
MSG Code and Cellular Location [5]: MGS_H1993.6_Intracellular

SAKTAVSQRVWLPSHRGGEP (MGS peptide) [MGS_A20.1]
MSG Code and Cellular Location [9]: MGS_A20.1_PlasmaMembrane

SVEYWGERMYYDVMESLGFS (MGS peptide) [MGS_H1993.1]
MSG Code and Cellular Location [5]: MGS_H1993.1_Lysosome

TWTDFGQWPWPFGAEGTRAF (MGS peptide) [MGS_H1993.4]
MSG Code and Cellular Location [5]: MGS_H1993.4_Pre-mitotic cells

VSQTMRQTAVPLLWFWTGSL (MGS peptide) [MGS_H1299.1]
MSG Code and Cellular Location [5]: MGS_H1299.1_Intracellular

WLSEAGPVVTVRALRGTGSW (MGS peptide) [MGS_PCM.1]
MSG Code and Cellular Location [10]: MGS_PCM.1_Intracellular | MSG Code and Cellular Location [9]: MGS_PCM.1_ Plasma Membrane

YAAWPASGAWTGTAPCSAGT (MGS peptide) [MGS_1299.2]
MSG Code and Cellular Location [5]: MGS_H1299.2_Intracellular | Cellular Location [5]: Lysosome | In Vivo Targeting [6]: Yes

YPGSPTQYPSSMHEYHSSSE (MGS peptide) [MGS_H2009.3]
MSG Code and Cellular Location [5]: MGS_H2009.3_Lysosome
